Key:
U87MG_IDH1R132H = experiment: Cellular 2-HG production assay, U87-MG-IDH1 R132H; assay type: cell-based; details: inhibition of 2HG production, 72 hr incubation, LC-MS/MS
Protocol: (§1) Cell lines HT-1080 (commercially available) and U87-MG-IDH1^R132H (obtained in analoy to the procedure reported in J. Mol. Neurosci 2013, 50, 165-71) are maintained in E-MEM 10% FCS and incubated at 37° C. in a humidified 5% CO2 atmosphere. Stably transfected U87-MG cell lines are also supplemented with 500 μg/mL G418.
(§2) Cells are seeded into 96 well black flat bottom plates at a density of 500 cells/well in 100 μL complete medium. After 24 hr the medium is replaced with 200 uL of fresh medium and compounds (dissolved into DMSO) are administrated to the cells using D300E Digital Dispenser (Tecan).
(§3) After 72 hr of incubation 100 uL from each well are collected and used for 2HG (R(−)-2-hydroxyglutarate) quantification.
(§4) Levels of 2-HG in cell culture media are determined by LC-MS/MS. Cell supernatants (100 μL/well) are treated with 1 M aqueous trichloroacetic acid containing 130 μM of the internal standard 2-HG-d3 (20 μL/well) in a 96-well plate.
(§5) The plates are sealed, mildly vortexed for 60 minutes, centrifuged at 4,000 RPM for 15 minutes, placed in a refrigerated autosampler taking care not to shake them, and aliquots of the upper part of the samples are directly injected in the chromatographic system. Calibration standards are obtained by ten fold dilution of aqueous 2-HG stock solutions with blank cell culture medium and denatured exactly in the same way as described above for samples. Samples and standards are assayed for 2-HG by reversed phase chromatography on a C18 column eluted with aqueous 0.15% formic acid and briefly washed with 90% methanol at the end of the run. 2-HG is determined by negative ion electrospray ionization with the internal standard method on a triple quadrupole mass spectrometer monitoring the MRM transitions 147>129 (2-HG) and 150>132 (2-HG-d3). 2-HG inhibition was calculated by comparing treated versus control data using Assay Explore (Symyx) software, with IC50 determined using a sigmoidal fitting algorithm.

IDH1^R132C = molecular target: T1, IDH1^R132C (Homo sapiens, UniProt O75874, R132C); experiment: NADPH depletion assay, IDH1 R132C; assay type: biochemical
T1 construct: purchased not specified
T1 sequence (O75874 whole entry R132C): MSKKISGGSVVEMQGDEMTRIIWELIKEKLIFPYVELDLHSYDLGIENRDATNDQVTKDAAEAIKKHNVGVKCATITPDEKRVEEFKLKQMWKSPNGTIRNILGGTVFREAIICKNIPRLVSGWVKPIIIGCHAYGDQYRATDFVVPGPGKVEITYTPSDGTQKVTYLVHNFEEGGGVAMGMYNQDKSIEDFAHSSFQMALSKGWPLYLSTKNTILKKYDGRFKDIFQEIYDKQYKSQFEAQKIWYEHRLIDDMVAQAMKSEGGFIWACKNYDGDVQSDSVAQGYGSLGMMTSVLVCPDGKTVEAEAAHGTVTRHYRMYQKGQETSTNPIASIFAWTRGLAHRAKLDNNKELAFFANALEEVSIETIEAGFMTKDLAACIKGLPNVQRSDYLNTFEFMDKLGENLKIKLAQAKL
Outline: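 IDH1 R132C (2 nM) preincubated 15 min at RT with compound in Tris-HCl pH 7.6/MgCl2 buffer, then 60 min RT with NADPH and 0.14 mM alpha-ketoglutarate. Remaining NADPH read by diaphorase/resazurin fluorescence (Ex544/Em590).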

IDH2^R172K = molecular target: T2, IDH2^R172K (Homo sapiens, UniProt P48735, R172K); experiment: NADPH depletion assay, IDH2 R172K; assay type: biochemical
T2 construct: purchased not specified
T2 sequence (P48735 40-452 R172K): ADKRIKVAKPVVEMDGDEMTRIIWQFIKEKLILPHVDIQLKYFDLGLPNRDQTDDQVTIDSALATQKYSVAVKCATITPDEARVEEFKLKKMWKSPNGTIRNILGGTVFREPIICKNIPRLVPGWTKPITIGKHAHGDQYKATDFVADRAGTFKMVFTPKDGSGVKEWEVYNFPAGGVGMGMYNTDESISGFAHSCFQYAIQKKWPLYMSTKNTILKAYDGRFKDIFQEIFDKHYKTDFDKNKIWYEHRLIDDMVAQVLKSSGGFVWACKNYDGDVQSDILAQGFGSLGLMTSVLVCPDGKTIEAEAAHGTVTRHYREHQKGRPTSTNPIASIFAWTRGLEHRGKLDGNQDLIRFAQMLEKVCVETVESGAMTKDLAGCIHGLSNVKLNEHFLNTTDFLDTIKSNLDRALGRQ
Outline: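 IDH2 R172K (16 nM) was preincubated 15 min at RT with compound (1:3 series from 1 mM in DMSO) in Tris pH 7.6/NaCl/MgCl2/Triton/β-mercaptoethanol. The reaction ran 60 min at RT with 0.55 mM alpha-ketoglutarate and NADPH (12 μM in the substrate mix). Remaining NADPH was read with diaphorase/resazurin fluorescence at Ex544/Em590.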

[1] = molecular target: T3, IDH1^R132H homodimer enzyme (Homo sapiens, UniProt O75874, R132H); experiment: NADPH depletion assay, IDH1 R132H; assay type: biochemical
T3 construct: purchased not specified
T3 sequence (O75874 whole entry R132H): as the sequence (O75874 whole entry R132C) above, with C132H counted along it
Outline: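 IDH1 R132H enzyme (8 nM as diluted) in Tris-HCl pH 7.6 with 10 mM MgCl2, 0.001% Triton X-100 and 4 mM β-mercaptoethanol is preincubated 15 min at RT with compound. Substrate mix (12 uM NADPH, 3.4 mM α-ketoglutarate) is added for 60 min; remaining NAD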

HT-1080 (IDH1^R132C) = experiment: Cellular 2-HG production assay, HT-1080; assay type: cell-based; details: Homo sapiens, HT-1080, 72 h, inhibition of 2HG production, 72 hr incubation, LC-MS/MS; read-out: HT1080 2-HG IC50
Protocol: as §1, §2, §3, §4, §5

Row | Structure (SMILES) | IC50 (U87MG_IDH1R132H) [nM] | IC50 (IDH1^R132C) [nM] | IC50 (IDH2^R172K) [nM] | IC50 [1] [nM] | IC50 (HT-1080 (IDH1^R132C)) [nM]
1 | C[C@H](Nc1ncc2ccc(=O)n(CC(C)(C)C)c2n1)c1ccc(Oc2ccccc2)cc1 [cpd 49, 8-(2,2-dimethylpropyl)-2-{[(1S)-1-(4-phenoxyphenyl)ethyl]amino}pyrido[2,3-d]pyrimidin-7(8H)-one] | 507 | 67 | 4360 | 118 | 307
2 | C[C@H](Nc1ncc2ccc(=O)n(CC(C)(C)C)c2n1)c1ccc(CN2CCOCC2)cc1 [cpd 110, 8-(2,2-dimethylpropyl)-2-({(1S)-1-[4-(morpholin-4-ylmethyl)phenyl]ethyl}amino)pyrido[2,3-d]pyrimidin-7(8H)-one] | 2610 | 104 | – | 238 | 590
3 | C[C@H](Nc1ncc2ccc(=O)n(CC(C)(C)C)c2n1)c1ccc(C(=O)N2CCC(F)(F)CC2)cc1 [cpd 83, 2-{[(1S)-1-{4-[(4,4-difluoropiperidin-1-yl)carbonyl]phenyl}ethyl]amino}-8-(2,2-dimethylpropyl) pyrido[2,3-d]pyrimidin-7(8H)-one] | 2060 | 196 | 4260 | 347 | –
4 | C[C@H](Nc1ncc2ccc(=O)n(CC(C)(C)C)c2n1)c1ccc(-c2ccnc(F)c2)cc1 [cpd 132, 8-(2,2-dimethylpropyl)-2-({(1S)-1-[4-(2-fluoropyridin-4-yl)phenyl]ethyl}amino)pyrido[2,3-d]pyrimidin-7(8H)-one] | 3220 | 124 | 6110 | 194 | –
5 | C[C@H](Nc1ncc2ccc(=O)n(CC(C)(C)C)c2n1)c1cc2cc(Cl)ccc2[nH]c1=O [cpd 50, 2-{[(1S)-1-(6-chloro-2-oxo-quinolin-3-yl)ethyl]amino}-8-(2,2-dimethylpropyl)pyrido[2,3-d]pyrimidin-7(8H)-one] | 2530 | 38 | 2510 | 68 | –
6 | C[C@H](Nc1ncc2ccc(=O)n(CC(C)(C)C)c2n1)c1ccc(C(=O)NC2CCC(F)(F)CC2)c(F)c1 [cpd 89, N-(4,4-difluorocyclohexyl)-4-[(1S)-1-{[8-(2,2-dimethylpropyl)-7-oxo-7,8-dihydropyrido[2,3-d]pyrimidin-2-yl]amino}ethyl]-2-fluorobenzamide] | 501 | 75 | – | 112 | 505
7 | C[C@H](Nc1ncc2ccc(=O)n(CC(C)(C)C)c2n1)c1ccc(-c2cnn(C)c2)cc1 [cpd 130, 8-(2,2-dimethylpropyl)-2-({(1S)-1-[4-(1-methyl-1H-pyrazol-4-yl)phenyl]ethyl}amino)pyrido[2,3-d]pyrimidin-7 (8H)-one] | 4840 | 93 | 5030 | 180 | –
8 | CC(C)[C@H](C)n1c(=O)ccc2cnc(N[C@@H](C)c3ccc(CN4CCOCC4)c(F)c3)nc21 [cpd 68, 2-({(1S)-1-[3-fluoro-4-(morpholin-4-ylmethyl)phenyl]ethyl}amino)-8-[(2S)-3-methylbutan-2-yl]pyrido[2,3-d]pyrimidin-7(8H)-one] | 646 | 29 | – | 78 | 315
9 | C[C@H](Nc1ncc2ccc(=O)n(CC(C)(C)C#N)c2n1)c1ccc2ccccc2c1 [cpd 129, 2,2-dimethyl-3-[2-{[(1S)-1-(naphthalen-2-yl)ethyl]amino}-7-oxopyrido[2,3-d]pyrimidin-8(7H)-yl]propanenitrile] | 3840 | 98 | 6680 | 197 | –
10 | C[C@H](Nc1ncc2ccc(=O)n(CC(C)(C)C)c2n1)c1ccc(-c2ccccc2C#N)cc1 [cpd 134, 4′-[(1S)-1-{[8-(2,2-dimethylpropyl)-7-oxo-7,8-dihydropyrido[2,3-d]pyrimidin-2-yl]amino}ethyl]biphenyl-2-carbonitrile] | 874 | 61 | 6110 | 152 | –

Further lines, results first:

Row | IC50 (U87MG_IDH1R132H) [nM] | IC50 (IDH1^R132C) [nM] | IC50 (IDH2^R172K) [nM] | IC50 [1] [nM] | IC50 (HT-1080 (IDH1^R132C)) [nM] | Structure (SMILES)
11 | 691 | 94 | 4540 | 161 | 353 | C[C@H](Nc1ncc2ccc(=O)n([C@@H](C)C3CCCCC3)c2n1)c1ccc(CN2CCCC(F)(F)C2)cc1 [cpd 66, 8-[(1S)-1-cyclohexylethyl]-2-{[(1S)-1-{4-[(3,3-difluoropiperidin-1-yl)methyl]phenyl}ethyl]amino} pyrido[2,3-d]pyrimidin-7(8H)-one]
12 | 462 | 44 | 5700 | 82 | 169 | CC[C@H](C)n1c(=O)ccc2cnc(N[C@@H](C)c3ccc(CN4CCCC(F)(F)C4)cc3)nc21 [cpd 62, 8-[(2S)-butan-2-yl]-2-{[(1S)-1-{4-[(3,3-difluoropiperidin-1-yl)methyl]phenyl}ethyl]amino}pyrido[2,3-d]pyrimidin-7(8H)-one]
13 | 1810 | 218 | 5680 | 334 | – | C[C@H](Nc1ncc2ccc(=O)n(CC3CCC3)c2n1)c1ccc(CN2CCC(F)(F)CC2)cc1 [cpd 109, 8-(cyclobutylmethyl)-2-{[(1S)-1-{4-[(4,4-difluoropiperidin-1-yl)methyl]phenyl}ethyl]amino}pyrido[2,3-d]pyrimidin-7(8H)-one]
14 | 637 | 90 | 3110 | 167 | 442 | CC(C)n1c(=O)ccc2cnc(N[C@@H](C)c3ccc(CN4CCCC(F)(F)C4)cc3)nc21 [cpd 170, 2-{[(1S)-1-{4-[(3,3-difluoropiperidin-1-yl)methyl]phenyl}ethyl]amino}-8-(propan-2-yl)pyrido[2,3-d]pyrimidin-7(8H)-one]
15 | 612 | 101 | 5020 | 176 | 311 | C[C@H](Nc1ncc2ccc(=O)n(CC(C)(C)C(F)(F)F)c2n1)c1ccc(CN2CCC(F)(F)CC2)cc1 [cpd 116, 2-{[(1S)-1-{4-[(4,4-difluoropiperidin-1-yl)methyl]phenyl}ethyl]amino}-8-(3,3,3-trifluoro-2,2-dimethylpropyl) pyrido[2,3-d]pyrimidin-7(8H)-one]
16 | 1380 | 132 | 3630 | 201 | – | C[C@H](Nc1ncc2ccc(=O)n(Cc3c(F)cccc3F)c2n1)c1ccc(CN2CCC(F)(F)CC2)cc1 [cpd 99, 8-(2,6-difluorobenzyl)-2-{[(1S)-1-{4-[(4,4-difluoropiperidin-1-yl)methyl]phenyl}ethyl]amino}pyrido[2,3-d]pyrimidin-7(8H)-one]
17 | 179 | 11 | – | 20 | 82 | CC(C)[C@H](C)n1c(=O)ccc2cnc(N[C@@H](C)c3ccc(CN4CCCC(F)(F)C4)cc3)nc21 [cpd 65, 2-{[(1S)-1-{4-[(3,3-difluoropiperidin-1-yl)methyl]phenyl}ethyl]amino}-8-[(2S)-3-methylbutan-2-yl]pyrido[2,3-d]pyrimidin-7(8H)-one]
18 | 2540 | 282 | 5510 | 367 | – | C[C@H](Nc1ncc2ccc(=O)n(CC3CCCCC3)c2n1)c1ccc(CN2CCC(F)(F)CC2)cc1 [cpd 113, 8-(cyclohexylmethyl)-2-{[(1S)-1-{4-[(4,4-difluoropiperidin-1-yl)methyl]phenyl}ethyl]amino}pyrido[2,3-d]pyrimidin-7(8H)-one]

Reference: US12018023B2 (NERVIANO MEDICAL SCIENCES S.R.L., priority 2018, dated 2024)
